The values below come from US20250388602A1 (Genase Therapeutics B.V., priority 2022, published 2025).

The target in one series is recombinant human DHODH (Homo sapiens (Human), UniProt Q02127). Briefly: DHODH enzyme assay (Assay A), DCIP absorbance. The class given is biochemical. To be noted: bins ≥10 nM-<100 nM and <10 nM; read-out: IC50 DHODH inhibition activity.
In a further series the test system is MOLM-13 cells. The series can be described thus: MOLM-13 cell viability (Assay B), Cell Titer-Glo. Format: cell-based. To be noted: Homo sapiens, read-out: IC50 MOLM13 inhibition activity. In outline: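 Cells at 1,000 per well in RPMI/10% FBS were exposed to compound (10E-5 to 6E-12 M), with or without 100 μM uridine, for 72 h. Viability was read by CellTiter-Glo luminescence. Duplicates were run, and potency was taken from two independent experiments.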
For orientation: Cellular ATP, detected with luciferase, serves as a proxy for viable cell number.

Series [1] in a line: in vitro. To be noted: for HLM % remaining: % remaining at 60 min, 1 μM; for half-life at 1 μM: both, human. As to the method: Human Liver Microsomal metabolic stability: The microsomal metabolic stability assay utilized pooled human liver microsomes (mixed gender, BD Gentest), with supplemented cofactors NADPH and UDPGA (Solarbio S&T Co., LTD). Two separate experiments were performed as follows: • a) With cofactors (NADPH & UDPGA): 25 μL of 10 mM NADPH and 25 μL of 20 mM UDPGA were added to 197.5 μL of reaction solution (phosphate buffer (final concentration in assay 100 mM), MgCl2 (final concentration in assay (5 mM)), alamethacin (final concentration in assay 0.025 mg/mL) and microsomes (final concentration in assay 0.5 mg/mL). • b) Without cofactors (NADPH & UDPGA): 50 μL of H2O was added to 197.5 μL of reaction solution.
The mixture was pre-warmed at 37° C. for 10 minutes. The reaction was started with the addition of 2.5 μL of 100 μM control compound or test compound solutions. Diclofenac was used as positive control in this study. The final concentration of control compound and test compounds was 1 μM. Aliquots of 25 μL were taken from the reaction solution at 0.5, 5, 15, 30 and 60 minutes. The reaction was stopped by the addition of 5 volumes of cold acetonitrile containing internal standards. Samples were centrifuged at 3,220 g for 40 minutes. An aliquot of 100 μL of the supernatant was mixed with 100 μL of ultra-pure H2O and then used for LC-MS/MS analysis. Peak areas were determined from extracted ion chromatograms. Percent parent remaining was calculated from the area ratio of test compound. The slope value was determined by linear regression of the natural logarithm of percent parent remaining versus incubation time curve.
(§1) Peak areas were determined from extracted ion chromatograms to determine the in vitro half-life (t½) of parent compound by regression analysis of the percent parent disappearance vs. time curve. The in vitro half-life (in vitro t½) was determined from the slope value (in vitro t½=−0.693/k). All calculations were carried out using Microsoft Excel.

The nature of series [2]: in vitro. To be noted: for hHEPs % remaining: 1 μM. The method, then:
Human Hepatocyte metabolic stability: Human hepatocytes (X008000, BioIVT) were freshly thawed prior to the incubations with test compound. Hepatocytes were transferred to 50 mL conical tubes and centrifuged 10 min at 100 g. Thawing medium was removed and replaced by preheated (37° C.) incubation medium (William's E Medium supplemented with GlutaMAX), to yield a hepatocyte density ˜1.5×10^6 cells/mL. Cell viability was determined using AO/PI staining and hepatocytes were diluted using incubation medium to a working density of 0.5×10^6 viable cells/mL. 198 μL of hepatocytes were added into each well of a 96-well plate and placed in the incubator to allow the hepatocytes to warm for 10 minutes. 2 μL test compound or positive control was placed into respective wells of the 96-well plate (final concentration test compound 1 μM) to start the reaction. The plate was returned to the incubator and 25 μL aliquots of the well contents were removed at time points of 0, 15, 30, 60, 90 and 120 minutes. The aliquots were mixed with 6 volumes (150 μL) of acetonitrile containing internal standards (100 nM alprazolam, 200 nM caffeine, and 100 nM tolbutamide) to terminate the reaction. The plate was centrifuged for 20 minutes at 3,200 g. Aliquots of 150 μL of the supernatants were used for LC/MS/MS analysis. All incubations were performed in duplicate.
as §1

The mark [3] stands for this setting: MOLM-13, 72 hours, bins ≥10 nM-<100 nM and <10 nM.

Read-outs that look alike come from different tables or passages of the source.

recombinant human DHODH, sequence (Q02127 whole entry): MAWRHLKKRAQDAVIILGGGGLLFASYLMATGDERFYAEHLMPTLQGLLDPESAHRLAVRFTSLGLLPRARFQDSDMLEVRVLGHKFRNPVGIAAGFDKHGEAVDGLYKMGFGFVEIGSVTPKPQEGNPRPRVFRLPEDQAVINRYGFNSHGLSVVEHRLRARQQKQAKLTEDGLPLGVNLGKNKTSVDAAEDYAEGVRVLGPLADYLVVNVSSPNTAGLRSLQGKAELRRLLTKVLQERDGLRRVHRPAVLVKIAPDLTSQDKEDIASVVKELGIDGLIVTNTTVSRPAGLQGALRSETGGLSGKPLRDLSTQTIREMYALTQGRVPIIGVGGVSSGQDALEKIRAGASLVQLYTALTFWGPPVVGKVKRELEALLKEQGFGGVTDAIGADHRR

As to `O=C(N[C@@H]1COCc2c1cnn2-c1ccccc1Cl)c1ncn2c1CCCC2` [Ex-51, (S)—N-(1-(2-chlorophenyl)-1,4,5,7-tetrahydropyrano[3,4-c]pyrazol-4-yl)-5,6,7,8-tetrahydroimidazo[1,5-a]pyridine-1-carboxamide], the IC50 (as a rule, the point on the concentration scale where inhibition reaches its midpoint) on recombinant human DHODH was 10 to 100 nM; in the series on MOLM-13 cells (setting [3]), less than 10 nM. In “in vitro [1]”, this molecule registered an HLM % remaining of 85%. Moreover, the half-life (usually how long it takes for the measured level to halve) at 1 μM is 5.93 h in the series “in vitro [1]” (pooled liver microsomes) and more than 10 h in the series “in vitro [2]” (human, hepatocytes). Besides, in the series “in vitro [2]” (% remaining at 120 min), the hHEPs % remaining is on record as 100%.
On to `Cc1ccccc1-n1ncc2c1COC[C@H]2NC(=O)c1ncn2c1CCCC2` [Ex-52, (S)—N-(1-(o-tolyl)-1,4,5,7-tetrahydropyrano[3,4-c]pyrazol-4-yl)-5,6,7,8-tetrahydroimidazo[1,5-a]pyridine-1-carboxamide], for which the half-maximal inhibitory concentration (IC50) on recombinant human DHODH and in the series with MOLM-13 cells (setting [3]) was 10 to 100 nM throughout. Also, the HLM % remaining in “in vitro [1]” came to 84%. Moreover, the half-life at 1 μM in the series “in vitro [1]” (pooled liver microsomes) was 4.52 h; in “in vitro [2]” (human, hepatocytes), more than 10 h. The molecule also yielded a hHEPs % remaining in “in vitro [2]” (human, hepatocytes, 2 h) of 100%.
Turning to `Cc1ccc(Cl)c(-n2ncc3c2COC[C@H]3NC(=O)c2ncn3c2CCCC3)c1` [Ex-53, (S)—N-(1-(2-chloro-5-methylphenyl)-1,4,5,7-tetrahydropyrano[3,4-c]pyrazol-4-yl)-5,6,7,8-tetrahydroimidazo[1,5-a]pyridine-1-carboxamide], the IC50 at recombinant human DHODH and in the series with MOLM-13 cells (setting [3]) was 10 to 100 nM throughout. The HLM % remaining in “in vitro [1]” stood at 96%. In addition, the half-life at 1 μM in “in vitro [1]” (pooled liver microsomes) is more than 6.08 h; in the series “in vitro [2]” (human, hepatocytes) it was more than 10 h. This molecule registered a hHEPs % remaining in the series “in vitro [2]” (% remaining at 120 min) of 99%.
`COc1ccccc1-n1ncc2c1COC[C@H]2NC(=O)c1ncn2c1CCCC2` [Ex-54, (S)—N-(1-(2-methoxyphenyl)-1,4,5,7-tetrahydropyrano[3,4-c]pyrazol-4-yl)-5,6,7,8-tetrahydroimidazo[1,5-a]pyridine-1-carboxamide]: the half-maximal inhibitory concentration (IC50) on recombinant human DHODH and in the series on MOLM-13 cells (setting [3]) was 10 to 100 nM throughout. Moreover, in the series “in vitro [1]”, the HLM % remaining was determined as 92%. Moreover, the half-life at 1 μM in “in vitro [1]” (pooled liver microsomes) is more than 6.08 h; in the series “in vitro [2]” (human, hepatocytes) it was more than 10 h. This molecule also displayed a hHEPs % remaining in the series “in vitro [2]” (% remaining at 120 min) of 100%.
As to `O=C(N[C@@H]1COCc2c1cnn2-c1ccccc1C(F)(F)F)c1ncn2c1CCCC2` [Ex-55, (S)—N-(1-(2-(trifluoromethyl)phenyl)-1,4,5,7-tetrahydropyrano[3,4-c]pyrazol-4-yl)-5,6,7,8-tetrahydroimidazo[1,5-a]pyridine-1-carboxamide], the IC50 on recombinant human DHODH and with MOLM-13 cells (setting [3]) was 10 to 100 nM in each case. The HLM % remaining in the series “in vitro [1]” is reported as 94%. The half-life at 1 μM in “in vitro [1]” (pooled liver microsomes) was more than 6.08 h; in the series “in vitro [2]” (human, hepatocytes) it was more than 10 h. In “in vitro [2]” (human, hepatocytes, 2 h), the hHEPs % remaining is given as 100%.
On to `Cc1cccc(F)c1-n1ncc2c1COC[C@H]2NC(=O)c1ncn2c1CCCC2` [Ex-58, (S)—N-(1-(2-fluoro-6-methylphenyl)-1,4,5,7-tetrahydropyrano[3,4-c]pyrazol-4-yl)-5,6,7,8-tetrahydroimidazo[1,5-a]pyridine-1-carboxamide], for which the IC50 at recombinant human DHODH and in the series on MOLM-13 cells (setting [3]) was 10 to 100 nM in each case. In “in vitro [1]”, this molecule yielded an HLM % remaining of 87%. Further, the half-life at 1 μM was 4.58 h in “in vitro [1]” (pooled liver microsomes) and more than 10 h in “in vitro [2]” (human, hepatocytes). For the same molecule, in “in vitro [2]” (% remaining at 120 min), the hHEPs % remaining came to 100%.
Regarding `O=C(N[C@@H]1COCc2c1cnn2-c1c(F)cccc1F)c1ncn2c1CCCC2` [Ex-59, (S)—N-(1-(2,6-difluorophenyl)-1,4,5,7-tetrahydropyrano[3,4-c]pyrazol-4-yl)-5,6,7,8-tetrahydroimidazo[1,5-a]pyridine-1-carboxamide], the half-maximal inhibitory concentration (IC50) on recombinant human DHODH and with MOLM-13 cells (setting [3]) was 10 to 100 nM each time. Moreover, the HLM % remaining in “in vitro [1]” was 91%. Also, the half-life at 1 μM in the series “in vitro [1]” (pooled liver microsomes) was more than 6.08 h; in “in vitro [2]” (human, hepatocytes), more than 10 h. The hHEPs % remaining in the series “in vitro [2]” (% remaining at 120 min) is 100%.
`COc1cccc(C)c1-n1ncc2c1COC[C@H]2NC(=O)c1ncn2c1CCCC2` [Ex-61, (S)—N-(1-(2-methoxy-6-methylphenyl)-1,4,5,7-tetrahydropyrano[3,4-c]pyrazol-4-yl)-5,6,7,8-tetrahydroimidazo[1,5-a]pyridine-1-carboxamide]: the IC50 on recombinant human DHODH and with MOLM-13 cells (setting [3]) was 10 to 100 nM throughout. Besides, the HLM % remaining in “in vitro [1]” turned out to be 94%. Further, the half-life at 1 μM in “in vitro [1]” (pooled liver microsomes) was more than 6.08 h; in “in vitro [2]” (human, hepatocytes) it was more than 10 h. The hHEPs % remaining in the series “in vitro [2]” (% remaining at 120 min) is 100%.
Consider `CC(C)OC(=O)c1cccc(-n2ncc3c2COC[C@H]3NC(=O)c2ncn3c2CCCC3)c1Cl` [Ex-69, Isopropyl (S)-2-chloro-3-(4-(5,6,7,8-tetrahydroimidazo[1,5-a]pyridine-1-carboxamido)-4,7-dihydropyrano[3,4-c]pyrazol-1(5H)-yl)benzoate], for which the half-maximal inhibitory concentration (IC50) is less than 10 nM on recombinant human DHODH and less than 10 nM in the series on MOLM-13 cells (MOLM-13, 72 h). Besides, in the series “in vitro [1]”, the HLM % remaining was found to be 0.14%. The half-life at 1 μM was 0.122 h in “in vitro [1]” (microsomes) and 0.0767 h in “in vitro [2]” (human, hepatocytes). In addition, the hHEPs % remaining entry in “in vitro [2]” (% remaining at 120 min) was “BLOD@”.
